For one experiment, the system named is S. aureus A798. The experiment is described as follows: MIC by broth microdilution (NCCLS), S. aureus A798. The following applies: strain A798, cation-adjusted Mueller-Hinton Broth, pH 7.2-7.3; for MIC: Staphylococcus aureus. It counts as cell-based, Staphylococcus aureus. The procedure: (§1) These assays have been performed following the description given in “Methods for dilution Antimicrobial Susceptibility Tests for Bacteria that Grow Aerobically, 4th ed.; Approved standard: NCCLS Document M7-A4; National Committee for Clinical Laboratory Standards: Villanova, Pa., USA, 1997”. Minimal inhibitory concentrations (MICs; mg/l) were determined in cation-adjusted Mueller-Hinton Broth (BBL) by a microdilution method following NCCLS guidelines (National Committee for Clinical Laboratory Standards. Methods for Dilution Antimicrobial Susceptibility). The pH of the test medium was 7.2-7.3.
(Broth dilution looks for growth in wells or tubes with falling amounts of substance.)

In a further experiment the test system is P. aeruginosa A1124. Description: MIC by broth microdilution (NCCLS), P. aeruginosa A1124. The experiment is classed as cell-based, Pseudomonas aeruginosa. The following applies: strain A1124, cation-adjusted Mueller-Hinton Broth, pH 7.2-7.3; for MIC: Pseudomonas aeruginosa. The procedure:
as §1

A further experiment relates to A. baumanii T6474. Description: MIC by broth microdilution (NCCLS), A. baumanii T6474. The experiment is classed as cell-based, Acetinobacter baumannii. The following applies: strain T6474, cation-adjusted Mueller-Hinton Broth, pH 7.2-7.3; for MIC: Acinetobacter baumannii. As to the method: as §1

For orientation: MIC means the lowest concentration found to suppress growth. Low readings indicate inhibition by little substance, high ones a need for much substance.

Converted amounts (≈) assume the structure as drawn.

In the case of `COc1ccc2nccc(CC(N)[C@H]3CC[C@H](NCC=Cc4cc(F)ccc4F)CC3)c2n1` (mixture of isomers) [Example 4, trans-{4-[(1RS)-1-amino-2-(6-methoxy-[1,5]naphthyridin-4-yl)-ethyl]-cyclohexyl}-[3-(2,5-difluoro-phenyl)-allyl]-amine], in the experiment on S. aureus A798 (second table, all Examples), the MIC was 0.063 µg/mL (≈ 0.139 µM).

Consider `COC(=O)c1ccc(CC(N)[C@H]2CC[C@H](NC/C=C/c3cc(F)ccc3F)CC2)c2nc(OC)ccc12` (mixture of isomers) [Example 5, 8-[(2RS)-2-amino-2-trans-{4-[(E)-3-(2,5-difluoro-phenyl)-allylamino]-cyclohexyl}-ethyl]-2-methoxy-quinoline-5-carboxylic acid methyl ester], for which, in the experiment with S. aureus A798 (second table, all Examples), the “MIC S. aureus A798” value worked out at 0.125 µg/mL (≈ 0.245 µM).

For `COc1ccc2c(CO)ccc(CC(N)[C@H]3CC[C@H](NC/C=C/c4cc(F)ccc4F)CC3)c2n1` (mixture of isomers) [Example 6, [8-((2RS)-2-amino-2-trans-{4-[3-(E)-(2,5-difluoro-phenyl)-allylamino]-cyclohexyl}-ethyl)-2-methoxy-quinolin-5-yl]-methanol], the “MIC S. aureus A798” value against S. aureus A798 (second table, all Examples) amounted to 0.125 µg/mL (≈ 0.26 µM); against S. aureus A798 (table of typical results), 0.125 µg/mL (≈ 0.26 µM). The “MIC P. aeruginosa A1124” value against P. aeruginosa A1124 stood at 0.5 µg/mL (≈ 1.04 µM). For the same compound, in the experiment on A. baumanii T6474, the “MIC A. baumanii T6474” value is 16 µg/mL (≈ 33.2 µM).

The compound `COc1cnc2cccc(CC(N)[C@H]3CC[C@H](NCc4ccc5c(n4)NC(=O)CS5)CC3)c2n1` (mixture of isomers) [Example 7, 6-(trans-{4-[(1RS)-1-amino-2-(3-methoxy-quinoxalin-5-yl)-ethyl]-cyclohexylamino}-methyl)-4H-pyrido[3,2-b][1,4]thiazin-3-one] displayed an MIC in the experiment with S. aureus A798 (second table, all Examples) of 0.063 µg/mL (≈ 0.132 µM).

As to `COc1cnc2cccc(CC(N)[C@H]3CC[C@@H](NCc4ccc5c(n4)NC(=O)CS5)CC3)c2n1` (mixture of isomers) [Example 8, 6-(cis-{4-[(1RS)-1-amino-2-(3-methoxy-quinoxalin-5-yl)-ethyl]-cyclohexylamino}-methyl)-4H-pyrido[3,2-b][1,4]thiazin-3-one], 1 µg/mL (≈ 2.09 µM) was the least that counted as inhibitory with S. aureus A798 (second table, all Examples) (MIC).

Turning to `COc1ccc2nccc(CC(N)[C@H]3CC[C@H](NCc4ccc5c(n4)NC(=O)CO5)CC3)c2n1` (mixture of isomers) [Example 9, 6-(trans-{4-[(1RS)-1-amino-2-(6-methoxy-[1,5]naphthyridin-4-yl)-ethyl]-cyclohexylamino}-methyl)-4H-pyrido[3,2-b][1,4]oxazin-3-one], the MIC in the experiment with S. aureus A798 (second table, all Examples) came out at 0.5 µg/mL (≈ 1.08 µM).

On to `COc1ccc2ncc(F)c(CC(N)[C@H]3CC[C@H](NCc4ccc5c(n4)NC(=O)CS5)CC3)c2c1` (mixture of isomers) [Example 10, trans-6-({4-[(1RS)-1-amino-2-(3-fluoro-6-methoxy-quinolin-4-yl)-ethyl]-cyclohexylamino}-methyl)-4H-pyrido[3,2-b][1,4]thiazin-3-one], for which the MIC against S. aureus A798 (second table, all Examples) was 0.031 µg/mL (≈ 0.0625 µM). This MIC lies about 16-fold lower than the previous one.

Take `COc1ccc2ncc(F)c(CC(N)[C@H]3CC[C@@H](NCc4ccc5c(n4)NC(=O)CS5)CC3)c2c1` (mixture of isomers) [Example 11, cis-6-({4-[(1RS)-1-amino-2-(3-fluoro-6-methoxy-quinolin-4-yl)-ethyl]-cyclohexylamino}-methyl)-4H-pyrido[3,2-b][1,4]thiazin-3-one]: the MIC in the experiment with S. aureus A798 (table of typical results) is 0.5 µg/mL (≈ 1.01 µM); in the experiment on P. aeruginosa A1124 it was 0.125 µg/mL (≈ 0.252 µM); against A. baumanii T6474, 4 µg/mL (≈ 8.07 µM). Besides, the “MIC S. aureus A798” value with S. aureus A798 (second table, all Examples) was determined as 0.5 µg/mL (≈ 1.01 µM).

`COc1ccc2ncc(F)c(CC(N)[C@H]3CC[C@H](NC/C=C/c4cc(F)ccc4F)CC3)c2c1` (mixture of isomers) [Example 12, trans-{4-[(1RS)-1-amino-2-(3-fluoro-6-methoxy-quinolin-4-yl)-ethyl]-cyclohexyl}-[3-(E)-(2,5-difluoro-phenyl)-allyl]-amine] showed an MIC against S. aureus A798 (second table, all Examples) not above 0.031 µg/mL.

In turn, `COc1ccc2ncc(F)c(CC(N)[C@H]3CC[C@@H](NC/C=C/c4cc(F)ccc4F)CC3)c2c1` (mixture of isomers) [Example 13, cis-{4-[(1RS)-1-amino-2-(3-fluoro-6-methoxy-quinolin-4-yl)-ethyl]-cyclohexyl}-[3-(E)-(2,5-difluoro-phenyl)-allyl]-amine] yielded an MIC with S. aureus A798 (second table, all Examples) of 0.063 µg/mL (≈ 0.134 µM).

`COc1ccc2ncc(F)c(CC(N)[C@H]3CC[C@H](NCc4ccc5c(n4)NC(=O)CS5)CC3)c2n1` (mixture of isomers) [Example 14, trans-6-({4-[(1RS)-1-amino-2-(3-fluoro-6-methoxy-[1,5]naphthyridin-4-yl)-ethyl]-cyclohexylamino}-methyl)-4H-pyrido[3,2-b][1,4]thiazin-3-one] registered an MIC in the experiment with S. aureus A798 (second table, all Examples) not above 0.031 µg/mL.

Regarding `COc1ccc2ncc(F)c(CC(N)[C@H]3CC[C@@H](NCc4ccc5c(n4)NC(=O)CS5)CC3)c2n1` (mixture of isomers) [Example 15, cis-6-({4-[(1RS)-1-amino-2-(3-fluoro-6-methoxy-[1,5]naphthyridin-4-yl)-ethyl]-cyclohexylamino}-methyl)-4H-pyrido[3,2-b][1,4]thiazin-3-one], in the experiment with S. aureus A798 (second table, all Examples), the MIC came out at 0.25 µg/mL (≈ 0.503 µM).

`COc1ccc2ncc(F)c(CC(N)[C@H]3CC[C@H](NCc4ccc5c(c4)NC(=O)CO5)CC3)c2c1` (mixture of isomers) [Example 16, trans-6-({4-[(1RS)-1-amino-2-(3-fluoro-6-methoxy-quinolin-4-yl)-ethyl]-cyclohexylamino}-methyl)-4H-benzo[1,4]oxazin-3-one] gave an MIC with S. aureus A798 (second table, all Examples) of 0.063 µg/mL (≈ 0.132 µM).

In the experiment on S. aureus A798 (second table, all Examples), `COc1ccc2nccc(CC(N)[C@H]3CC[C@H](NCc4ccc5c(c4)NC(=O)CO5)CC3)c2c1` (mixture of isomers) [Example 19, trans-6-({4-[(1RS)-1-amino-2-(6-methoxy-quinolin-4-yl)-ethyl]-cyclohexylamino}-methyl)-4H-benzo[1,4]oxazin-3-one] had an MIC of 1 µg/mL (≈ 2.17 µM).

In the case of `COc1ccc2nccc(CC(N)[C@H]3CC[C@H](NCc4ccc5c(n4)NC(=O)CS5)CC3)c2c1` (mixture of isomers) [Example 20, trans-6-({4-[(1RS)-amino-2-(6-methoxy-quinolin-4-yl)-ethyl]-cyclohexylamino}-methyl)-4H-pyrido[3,2-b][1,4]thiazin-3-one], the “MIC S. aureus A798” value in the experiment on S. aureus A798 (second table, all Examples) is 0.125 µg/mL (≈ 0.262 µM).

For `COc1ccc2nccc(CC(N)[C@H]3CC[C@H](NCc4ccc5c(n4)NC(=O)CO5)CC3)c2c1` (mixture of isomers) [Example 21, trans-6-({4-[(1RS)-amino-2-(6-methoxy-quinolin-4-yl)-ethyl]-cyclohexylamino}-methyl)-4H-pyrido[3,2-b][1,4]oxazin-3-one], the “MIC S. aureus A798” value in the experiment on S. aureus A798 (second table, all Examples) came out at 0.5 µg/mL (≈ 1.08 µM).

For the compound `COc1ccc2nccc([C@@H](O)[C@H](N)[C@H]3CC[C@H](NCc4ccc5c(n4)NC(=O)CS5)CC3)c2n1` (relative stereo) [Example 3, 6-(trans-{4-[(1R*,2R*)-1-amino-2-hydroxy-2-(6-methoxy-[1,5]naphthyridin-4-yl)-ethyl]-cyclohexylamino}-methyl)-4H-pyrido[3,2-b][1,4]thiazin-3-one], the MIC with S. aureus A798 (second table, all Examples) stood at 0.125 µg/mL (≈ 0.253 µM).

In the case of `COc1ccc2nccc([C@@H](O)[C@H](N)[C@H]3CC[C@H](NCc4ccc5c(c4)OCCO5)CC3)c2n1` (relative stereo) [Example 17, trans-(1R*,2R*)-2-amino-2-{4-[(2,3-dihydro-benzo[1,4]dioxin-6-ylmethyl)-amino]-cyclohexyl}-1-(6-methoxy-[1,5]naphthyridin-4-yl)-ethanol], the results for the minimal inhibitory concentration (MIC) in the experiment on S. aureus A798 (table of typical results), against P. aeruginosa A1124 and against A. baumanii T6474 were 0.063 µg/mL (≈ 0.136 µM), 2 µg/mL (≈ 4.31 µM) and 16 µg/mL (≈ 34.4 µM), respectively. For the same compound, in the experiment on S. aureus A798 (second table, all Examples), the “MIC S. aureus A798” value is 0.063 µg/mL (≈ 0.136 µM).

With `COc1ccc2nccc([C@@H](O)[C@H](N)[C@H]3CC[C@H](NC/C=C/c4cc(F)ccc4F)CC3)c2n1` (relative stereo) [Example 18, trans-(1R*,2R*)-2-amino-2-{4-[(E)-3-(2,5-difluoro-phenyl)-allylamino]-cyclohexyl}-1-(6-methoxy-[1,5]naphthyridin-4-yl)-ethanol], in the experiment on S. aureus A798 (second table, all Examples), the minimum inhibitory concentration (MIC) is not above 0.031 µg/mL.

Turning to `COc1ccc2nccc(C[C@@H](N)[C@H]3CC[C@H](NCc4ccc5c(n4)NC(=O)CS5)CC3)c2n1` [Example 1, 6-(trans-{4-[(1R)-1-amino-2-(6-methoxy-[1,5]naphthyridin-4-yl)-ethyl]-cyclohexylamino}-methyl)-4H-pyrido[3,2-b][1,4]thiazin-3-one], the MIC in the experiment on S. aureus A798 (table of typical results) was 4 µg/mL (≈ 8.36 µM); against P. aeruginosa A1124 it was 0.063 µg/mL (≈ 0.132 µM); with A. baumanii T6474, 32 µg/mL (≈ 66.9 µM). Also, the “MIC S. aureus A798” value with S. aureus A798 (second table, all Examples) came out at 4 µg/mL (≈ 8.36 µM).

In the experiment on S. aureus A798 (second table, all Examples), `COc1ccc2nccc(C[C@H](N)[C@H]3CC[C@H](NCc4ccc5c(n4)NC(=O)CS5)CC3)c2n1` [Example 2, 6-(trans-{4-[(1S)-1-amino-2-(6-methoxy-[1,5]naphthyridin-4-yl)-ethyl]-cyclohexylamino}-methyl)-4H-pyrido[3,2-b][1,4]thiazin-3-one] returned a minimal inhibitory concentration (MIC) of 0.125 µg/mL (≈ 0.261 µM).

(Values after patent US8044044B2, “4-(1-amino-ethyl)-cyclohexylamine derivatives” (Actelion Pharmaceutical Ltd., priority 2006, dated 2011).)
